Measurements taken from the NIST ThermoML archive (doi:10.1021/je700338t).
± gives the expanded uncertainty stated by the source.

Assays:
[1] = refractive index (Na D-line) (dimensionless); details: 298.15 K; 101.33 kPa; Liquid
[2] = 298.15 K; 101.33 kPa; Liquid
[3] = xn = mol fraction of the nth substance listed; details: 298.15 K, 101 kPa, Liquid; for mass density: Vibrating tube method
[4] = refractive index (Na D-line) (dimensionless); xn = mol fraction of the nth substance listed; details: 298.15 K, 101 kPa, Liquid

CCCCn1cc[n+](C)c1.F[P-](F)(F)(F)(F)F [1-butyl-3-methylimidazolium hexafluorophosphate]
Details	mass density [kg/m3]	refractive index	speed of sound [m/s]	viscosity [mPa·s]
[1]	–	1.4095 ± 0.0018	–	–
[2]	1366.07 ± 3.8	–	1443.5 ± 3.5	212.1 ± 42

CCCCn1cc[n+](C)c1.F[P-](F)(F)(F)(F)F [1-butyl-3-methylimidazolium hexafluorophosphate] + C1CCOC1
Details	mass density, [3] [kg/m3]	refractive index, [4]	speed of sound, [3] [m/s]	viscosity, [3] [mPa·s]
x1 = 0.0199	911.565 ± 0.12	–	1279.2 ± 2.6	–
x1 = 0.0376	936.57 ± 0.12	–	1279.9 ± 2.7	–
x1 = 0.0502	–	1.4084 ± 0.0006	–	0.75 ± 0.077
x1 = 0.0737	979.097 ± 0.13	–	1287.9 ± 2.7	–
x1 = 0.0967	–	1.4117 ± 0.0006	–	1.14 ± 0.11
x1 = 0.15	1055.63 ± 0.22	–	1312.6 ± 2.8	–
x1 = 0.1524	–	1.4125 ± 0.0006	–	1.732 ± 0.16
x1 = 0.1999	–	1.4126 ± 0.0006	–	2.476 ± 0.22
x1 = 0.2003	1095.84 ± 0.27	–	1329.2 ± 2.8	–
x1 = 0.2486	1129.41 ± 0.32	–	1343.7 ± 2.8	–
x1 = 0.2969	–	1.413 ± 0.0007	–	4.937 ± 0.43
x1 = 0.3004	1159.97 ± 0.37	–	1357.3 ± 2.9	–
x1 = 0.3484	–	1.4128 ± 0.0007	–	6.979 ± 0.56
x1 = 0.3491	1185.7 ± 0.43	–	1368.6 ± 2.9	–
x1 = 0.3994	–	1.4127 ± 0.0007	–	10.06 ± 0.75
x1 = 0.4484	–	1.4126 ± 0.0007	–	14.54 ± 1
x1 = 0.4634	1235.91 ± 0.58	–	1390.5 ± 3	–
x1 = 0.5028	–	1.4117 ± 0.0007	–	18.5 ± 1.3
x1 = 0.5808	1276.69 ± 0.76	–	1406.9 ± 3.1	–
x1 = 0.6047	–	1.4115 ± 0.0007	–	33.63 ± 2.2
x1 = 0.6941	1306.09 ± 0.96	–	1418.7 ± 3.2	–
x1 = 0.7016	–	1.411 ± 0.0007	–	52.84 ± 1
x1 = 0.7996	1329.25 ± 1.2	–	1427.8 ± 3.3	–
x1 = 0.805	–	1.4105 ± 0.0007	–	90.82 ± 15
x1 = 0.8991	1348.14 ± 1.4	–	1435.7 ± 3.4	–
x1 = 0.9595	–	1.4095 ± 0.0007	–	186.86 ± 67

CCCCn1cc[n+](C)c1.F[P-](F)(F)(F)(F)F [1-butyl-3-methylimidazolium hexafluorophosphate] + CC#N
Details	refractive index, [4]	viscosity, [3] [mPa·s]
x1 = 0.0496	1.3575 ± 0.0006	0.556 ± 0.06
x1 = 0.1016	1.3687 ± 0.0006	0.864 ± 0.087
x1 = 0.147	1.3754 ± 0.0006	1.187 ± 0.12
x1 = 0.2022	1.3819 ± 0.0006	1.866 ± 0.17
x1 = 0.2995	1.3902 ± 0.0006	3.792 ± 0.34
x1 = 0.3524	1.3934 ± 0.0006	5.308 ± 0.45
x1 = 0.4036	1.3959 ± 0.0006	7.674 ± 0.6
x1 = 0.4337	1.3974 ± 0.0006	9.153 ± 0.69
x1 = 0.4955	1.3998 ± 0.0007	14.44 ± 1
x1 = 0.5892	1.4024 ± 0.0007	23.84 ± 1.6
x1 = 0.6857	1.4048 ± 0.0007	40.69 ± 2.7
x1 = 0.8046	1.4068 ± 0.0007	81.53 ± 11
x1 = 0.8055	1.4069 ± 0.0007	86.27 ± 13
x1 = 0.9176	1.4084 ± 0.0007	154.06 ± 47
